# Source: paper PMC10852989, “Combining cisplatin and a STING agonist into one molecule for metalloimmunotherapy of cancer” (National Science Review, 2024)
# What was measured:
# [1] = octanol-water partition coefficient, shake-flask, ICP-MS; type: physicochemical; details: n-octanol / phosphate buffer 10 mM pH 7.4, room temperature
# Experimental: Lipid-water partition coefficient. The shake-flask method was used to measure the partition coefficients of CDDP, I and II. Briefly, a mixture containing equal volumes of n-octanol and phosphate buffer (10 mM, pH 7.4) was shaken on a mechanical shaker at room temperature for 24 h. Complexes (10 mM) in phosphate buffer (presaturated with n-octanol) were mixed with an equal volume of n-octanol (presaturated with phosphate buffer), and the mixture was shaken for 24 h at room temperature. Centrifugation was carried out at 2500 rpm for 30 min to separate the two phases. The aqueous layer was carefully separated, and the Pt content in the initial and final aqueous phases was analyzed by inductively coupled plasma mass spectrometry (ICP-MS). The log PO/W was measured using the following equation: log PO/W = log [(Ptinitial ‒ Ptfinal)/Ptfinal].
# MCF-7 cells = test: 72 h MTT cytotoxicity, MCF-7; type: cell-based, human
# Experimental: (§1) Cytotoxicity. Tumor cells were cultured overnight after inoculation in RPMI-1640 medium or DMEM supplemented with 10% FBS. All cultures were maintained in an incubator in a highly humidified atmosphere of 95% air with 5% CO2 at 37 °C. Growth inhibition was measured with an MTT assay. Briefly, 2800–7000 cells per well in culture medium (100 μL) were plated in 96-well plates (Corning). The cells were treated in triplicate with different concentrations of complexes at 37 ℃ for 72 h. Stock solutions of CDDP and oxoplatin were prepared in PBS, while stock solutions of conjugates I and II and the ligand MSA-2 were prepared in DMSO. The stock solutions were diluted in complete medium (DMSO < 0.5%). An aliquot of MTT solution (40 μL, 2.5 mg·mL^–1) in PBS buffer was added to each well and incubated for 4 h. The supernatant was removed and DMSO (150 μL) was added to solubilize the formazan crystals. The amount of formazan was determined using a microplate reader at 570 nm after the plates were shaken for 30 min. The optical density (OD) was used to calculate the percentage of viable cells relative to untreated control values. Background readings for MTT incubated in cell-free medium were subtracted from each value before calculation. […] The mean IC50 values were calculated using data from three replicates.
# [2] = H&E histology of major organs after treatment; type: in vivo, mouse; details: C57BL/6 mice after treatment, 10.0 μmol/kg
# Experimental: Hematoxylin and eosin staining. Tissue samples were subjected to histopathological examination using hematoxylin and eosin (H&E) staining. Mouse organs (heart, liver, spleen, lungs and kidneys) were collected in 4% paraformaldehyde for proper fixation and then embedded in paraffin using a tissue embedding machine. Sections were prepared in an orderly manner by dewaxing, dehydration, and H&E staining. The tissue morphology was observed under a fluorescence microscope (Olympus BX41, Japan).
# Pan02 tumors [3] = test: scRNA-seq of Pan02 tumors; type: in vivo, mouse; details: scRNA-seq at treatment endpoint, versus untreated
# Source text: ScRNA-seq. Tumors were excised from individual mice after treatment using a dissecting microscope and pooled. The tumors were cryopreserved in FBS + 10% DMSO. Samples were subsequently thawed, washed, sorted to isolate living cells and then performed on the 10X Genomics 5’ Chromium v2.0 platform according to the manufacturer’s instructions. Libraries were generated per the manufacturer’s protocol and sequenced on an Illumina HiSeq 2500 with the “rapid run” mode according to the standard 10X Genomics protocol. Data analysis was conducted by Singleron Biotech. Co. Ltd. using Cellranger and R.
# Cell type annotation. The cell type identity of each cluster was determined from the expression of canonical markers found in the DEGs using SynEcoSys database. Heatmaps displaying the expression of markers used to identify each cell type were generated by Seurat v3.12 DoHeatmap.
# Caov3 cells = test: 72 h MTT cytotoxicity, Caov3; type: cell-based, human
# Experimental: as §1
# Pan02 tumors [4] = test: in vivo antitumor activity, C57BL/6 mice bearing Pan02 tumors; parameters: species or system mouse
# Experimental: In vivo antitumor activity. Female C57BL/6 mice (6–8 weeks old) were subcutaneously implanted with pan02 cells (2 × 10^6) in the right flank. Once the tumor volume reached approximately 60 mm^3, the mice were assigned to 4 groups at random (n = 5–8) and received treatment with PBS, CDDP (10.0 μmol/kg), I (10.0 μmol/kg), or a mixture of CDDP (10.0 μmol/kg) and MSA-2 (10.0 μmol/kg). The mice received 9 treatments. Changes in body weight and tumor volume were recorded. All the experimental procedures utilizing mice were performed in accordance with the Guidelines for Care and Use of Laboratory Animals of Nanjing University and experiments were approved by the Institutional Animal Care and Use Committee of Nanjing University (IACUC-2101001, SL-019-00).
# [5] = test system: BMDCs cultured with Pan02 cell CM; test: IFN-β ELISA of BMDCs incubated with conditioned medium of drug-treated Pan02 cells; type: cell-based, mouse
# Experimental: ELISA. Bone marrow-derived dendritic cells (BMDCs) were prepared according to the following method. Briefly, femurs and tibias were removed from 4-6 week-old C57BL/6 mice, and the bone marrow cells were isolated. The bone marrow cells were incubated in T cell medium [RPMI-1640 medium (with GlutaMAX), supplemented with 10% FBS, 1% HEPES, 1% NEAA, 1% sodium pyruvate, and 0.1% βME] containing 20 ng/mL GM-CSF for 6 days after erythrocyte lysis, during which time half of the medium was replaced with fresh T cell medium once and the cytokines were supplemented. Then, the BMDCs were harvested on day 7 for further study.
# Pan02 tumor cells were treated with various drugs at a concentration of 5 μM for 48 h, and then the drug-pretreated tumor cell supernatant was obtained by centrifugation at a speed of 12000 rpm/min for 5 min and used as conditioned media (CM) subsequently.
# BMDCs were cultured with 50% CM plus 50% fresh medium for 18 h. In addition, BMDCs were cultured with fresh medium containing different complexes or mixtures (15 μM CDDP and I, a mixture of I and 8 equiv. AsA, and equal AsA). Then, all the BMDC supernatant was collected and centrifuged for subsequent cytokine analysis using ELISA kits, which were performed according to the manufacturer’s instructions.
# [6] = test system: cancer cell lines (MCF-7, Caov3, PANC-1, BxPC3, Pan02); test: 72 h MTT cytotoxicity, panel of cancer cell lines; type: cell-based
# Experimental: as §1
compound,measurement,setting,value
COc1cc2cc(C(=O)CCC(=O)[O][Pt]([NH2])([NH2])([OH])([Cl])[Cl])sc2cc1OC [conjugate I],octanol-water partition coefficient (logPo/w),[1],0.9
same,IC50,MCF-7 cells,300 ± 100 nM
same,histological findings in major organs,[2],only mild vacuolar degeneration in the liver and aggregates containing only a few inflammatory cells in the lungs
same,"frequencies of CD8 effector T, CD4 T and NK cells",Pan02 tumors [3],increased
same,percentage of tumor cells,Pan02 tumors [3],decreased
same,IC50,Caov3 cells,700 ± 100 nM
same,tumor volume,"Pan02 tumors [4]; C57BL/6 mice, Pan02 tumors, 10.0 μmol/kg every 2 days for 16 days, intravenous",106.3 ± 6.2 mm^3
same,tumor growth after cessation of treatment,Pan02 tumors [4]; monitored another 6 days,substantially suppressed
same,"IFN-β secretion by BMDCs pretreated with MyD88 inhibitor, treated Pan02 cell CM",[5]; MyD88 inhibitor TJ-M2010-5,significant decrease
same,IFN-β secretion by BMDCs incubated with treated Pan02 cell CM,"[5]; Pan02 treated 48 h at 5 μM (Pt-E-I 20 μM), BMDCs 50% CM, 18 h",markedly increased
same,IC50 in these cancer cell lines,[6],submicromolar
